“Also recorded” adds a separate entry of the source. Like-named read-outs stand apart in the source and are kept apart here.
Columns and labels:
A431 cells [1] = assay: cells; format: cell-based; details: for effect on photodynamic cell killing compared to MAL and irradiation only / modes of cell death (early apoptosis, late apoptosis, necrosis): 1 mM MAL + SRHD 1 μM + irradiation; for modes of cell death (early apoptosis, late apoptosis, necrosis): compared to MAL and irradiation, FIG. 2, 4
Protocol: A431 cells (human epithelial squamous cell carcinoma cells) were seeded at a density of 1×10^6 cells/ml in T12.5 cm^2 flasks and incubated under 2% O2 for 48 h prior to treatment. After 24 h, the culture medium was replaced and the cells were placed back into the incubators under 2% O2. Following this incubation period, the culture medium was then removed and the flasks were washed with PBS. The cells were then treated with one of the SRHDs and incubated at 2% O2 for 2 h, after which MAL was added to a final concentration of 1 mM and the cells were incubated at 2% O2 for 3 h. This meant in total, the cells were treated with the SRHDs for 5 h.
Following this final incubation, cell death was analysed by annexin V-FITC and propidium iodide staining in conjunction with flow cytometry.
(§1) Cell death analysis by flow cytometry was carried out using the annexin V-FITC/propidium iodide protocol. This protocol allows a quantitative assessment of cell death, particularly specific modes of death, and involves staining the cells with fluorescein isothiocyanate-conjugated annexin A5 (annexin V-FITC) and propidium iodide (PI). Positive staining with annexin V-FITC alone indicates an apoptotic cell; positive staining with PI alone indicates a necrotic cell and dual staining of both annexin V and PI indicates a “late apoptotic” cell.
From each flask being assessed, the old medium was removed and placed into a corresponding individual 15 ml Falcon tube in order to collect any cells that may have detached from the surface. The flask was washed once with 1 ml PBS; also deposited in the Falcon tubes. Trypsin (500 μl) was added to each flask and the flasks were returned to the incubator with their caps loosened. Cell detachment was monitored using an inverted light microscope, until 50% of the cells were detached. The flasks were then lightly tapped to detach the remainder of the cells. Medium (2 ml) was added to each flask in order to neutralise the trypsin present before being removed and dispensed into the Falcon tubes. One more wash with PBS was carried out in order to ensure any cells left in the flasks were collected. The Falcon tubes were then centrifuged at 490 g for 3 min, forming a pellet at the bottom of the tube. The supernatant was discarded, and the cells were re-suspended in 5 ml of PBS, in order to wash them, before being centrifuged again at 490 g for 3 min. […] The Falcon tubes were placed on ice and in the dark for 15 min to allow annexin V staining. […] The samples were then ready to be assessed by flow cytometry.
(§2) The following flow cytometry process of sample detection was used. When using annexin V-FITC and PI, the detectors being used were FL1 (λmax=520 nm) and FL3 (λmax=670 nm), respectively, each with their own logarithmic histogram generated by the software. The intensity of the fluorescence detected is measured on a logarithmic scale on the x-axis and the y-axis represents the number of cells detected at a given fluorescence intensity. A plot of FL1/FL3 produces a 4-quadrant graph, where unstained and untreated cells are located in the bottom left quadrant, representing any cells found in the 1st decade of the single plot logarithmic histograms. Single staining with annexin V-FITC and PI are located in the bottom right and top left quadrant, respectively, and dual staining is located in the top right quadrant. These quadrants represent any cells detected above the 1st decade of the logarithmic histograms.

A431 cells [2] = details: for cell viability, percentage of untreated control: 500 μM
Protocol: A431 cells were seeded at a density of 1×10^5 cells/ml in 96 well plates and incubated under 2% O2 for 48 h prior to treatment. After 24 h, the culture medium was replaced and the cells were placed back into the incubators under 2% O2. Following this incubation period, the culture medium was then removed and the plates were washed with PBS. The cells were then treated with 1 mM MAL in the absence or presence of one of the compounds of interest and then incubated again at 2% O2 for 3 h. For experiments carried out with SRHDs, this treatment step was carried out for 5 h at 2% O2. After treatment, the cells were washed with PBS, the culture medium was replaced and the cells were placed back under 2% O2 for 3 h. Following this final incubation, cell death was analysed using the resazurin viability assay.
Resazurin (7-hydroxy-3H-phenoxazin-3-one 0-oxide) is a weakly fluorescent blue dye used primarily in oxidation-reduction cell viability assays. Irreversible NADH-dependent reduction by the mitochondria in mammalian cells leads to the production of resorufin, a highly fluorescent product with excitation at 571 nm, emission at 585 nm.
A431 cells were seeded into 96 well plates at a density of 1.5*10^6 cells per ml (200 μl per well, 3*10^5 cells) and incubated for 24 h to adhere. Following incubation, the cells were washed and treated with the compound of interest for the relevant time, and then washed with PBS. […] After a 2 h incubation, the fluorescence of each well was measured (excitation: 571 nm, emission: 585 nm) using a fluorescence plate reader. Data from these experiments was plotted as a percentage of cell viability compared to untreated control cells.

A431 cells [3] = assay: Photodynamic cell killing in the presence of inhibitors of the thioredoxin antioxidant system or nitroxides (annexin V-FITC/propidium iodide flow cytometry); format: cell-based, human; details: for cell death: 3 h, irradiation
Protocol: After this treatment, the cells were irradiated for 5 min (630 nm, 25 J/cm^2), then washed with PBS and the culture medium was replaced, after which the cells were placed back under 2% O2 and incubated for a further 3 h. Following this final incubation, cell death was analysed by annexin V-FITC and propidium iodide staining in conjunction with flow cytometry.
as §1
From each flask being assessed, the old medium was removed and placed into a corresponding individual 15 ml Falcon tube in order to collect any cells that may have detached from the surface. The flask was washed once with 1 ml PBS; also deposited in the Falcon tubes. Trypsin (500 μl) was added to each flask and the flasks were returned to the incubator with their caps loosened. Cell detachment was monitored using an inverted light microscope, until 50% of the cells were detached. The flasks were then lightly tapped to detach the remainder of the cells. Medium (2 ml) was added to each flask in order to neutralise the trypsin present before being removed and dispensed into the Falcon tubes. One more wash with PBS was carried out in order to ensure any cells left in the flasks were collected. The Falcon tubes were then centrifuged at 490 g for 3 min, forming a pellet at the bottom of the tube. The supernatant was discarded, and the cells were re-suspended in 5 ml of PBS, in order to wash them, before being centrifuged again at 490 g for 3 min. The wash stage was carried out once more before re-suspending the cell pellet in 95 μl of ice cold calcium (Ca^2+) buffer (50 mM HEPES, 700 mM NaCl, 12.5 mM CaCl2, pH 7.4) and adding 5 μl 12.5 μg/ml of annexin V-FITC (final concentration, 1.25 μg/ml), under reduced light conditions to prevent bleaching of the FITC. The Falcon tubes were placed on ice and in the dark for 15 min to allow annexin V staining. After 15 min, 860 μl of Ca^2+ buffer (10 mM Hepes adjusted to pH 7.4, 140 mM NaCl and 2.5 mM CaCl2) was added, followed by 40 μl of 1 mg/ml PI in water (final concentration, 0.04 mg/ml) to give a final volume of 1 ml. The samples were then ready to be assessed by flow cytometry.
as §2

A431 cells [4] = assay: Mitochondrial reactive oxygen species generation during photodynamic irradiation, MitoSOX flow cytometry; format: cell-based, human; details: 3 hours, irradiated
Protocol: A431 cells were treated concurrently with AP39-C10 (10, 100 or 1000 nM) for 5 hours, MAL (1 mM) for 3 hours and MitoSOX (2.5 μM) for 1 hour, after which they were irradiated for 5 min (630 nm, 25 J/cm^2) and MitoSOX (mito-2-OH-E^+) fluorescence, indicative of mitochondrial oxidant production, was immediately analysed by flow cytometry. Results are set out in FIG. 23.
Mitochondria-targeted dihydroethidium (i.e. MitoSOX) was used to assess the production of mitochondrial reactive oxygen species (ROS) by PpIX photochemical reactions and to determine the effects of AP39-C10 on this process. All of the results are represented as a percentage of the untreated controls (100.0±8.5%). The fluorescence of the photoirradiated cells, which had been pre-treated with MAL, was 193.7±7.3% (p<0.001 c.f. untreated controls).

[5] = 1 mM MAL + SRHD 1 μM (5 h) + irradiation, 3 h post-irradiation
[6] = dark toxicity, without irradiation, SRHD 1 μM, 5 h, FIG. 1, 3

NC(=S)c1ccc(OC(=O)CCCCCCC[P+](c2ccccc2)(c2ccccc2)c2ccccc2)cc1 [AP123-C8]
cell death (A431 cells [1]; [5]): 67.5±6.4%
cell death (A431 cells [1]; [6]): 13.2±3.1%
cell viability, percentage of untreated control (A431 cells [2]; 5 hours, FIG. 15, 16): 13.2±1.8%

O=C(CCCCCCC[P+](c1ccccc1)(c1ccccc1)c1ccccc1)Oc1ccc(-c2cc(=S)ss2)cc1 [AP39-C8]
cell death (A431 cells [1]; [5]): 46.3±2.1%
cell death (A431 cells [1]; [6]): 14.9±2.3%
cell viability, percentage of untreated control (A431 cells [2]; 5 hours, FIG. 15, 16): 20.1±4.5%

NC(=S)c1ccc(O)cc1 [4-HTB, 4-hydroxythiobenzamide]
cell death (A431 cells [1]; [5]): 22.5±5.5%
effect on photodynamic cell killing compared to MAL and irradiation only (A431 cells [1]): no statistically significant effect on photodynamic cell killing
modes of cell death (early apoptosis, late apoptosis, necrosis) (A431 cells [1]): no effect on the types of cell death observed compared to treatment with MAL and irradiation
concentration up to which treatment was well tolerated (A431 cells [2]; 5 hours, range 0.1-500 μM): up to 500 μM

CCC(C)SSc1ncc[nH]1 (stereo not drawn) [PX12, 2-[(1-Methylpropyl)dithio]-1H-imidazole]
cell death (A431 cells [3]; 1 mM MAL + co-treatment 10 μM): 70.5±4.5%
potentiating effect on MAL photodynamic cell killing (A431 cells [3]; summary of Examples 2A, 3A): more robust potentiating effect
cell viability, percentage of untreated control (A431 cells [2]; 24 hours): 47.5±4.9%
concentration up to which well tolerated / no cytotoxicity (A431 cells [2]; 24 hours): ≤ 100 µM
MitoSOX fluorescence, percentage of untreated cells (A431 cells [4]; MAL 1 mM + co-treatment 10 μM): 211.4±17.6%

CC[PH](CC)(CC)[Au][S][C@@H]1O[C@H](COC(C)=O)[C@@H](OC(C)=O)[C@H](OC(C)=O)[C@H]1OC(C)=O [auranofin]
modes of cell death (A431 cells [3]): primarily increased necrotic cell death; also recorded: slightly increased late apoptotic cell death; also recorded: concentration-dependent increases in late apoptosis and necrosis, with little effect on early apoptosis
potentiating effect on MAL photodynamic cell killing (A431 cells [3]): more robust potentiating effect
concentration up to which well tolerated / no cytotoxicity (A431 cells [2]; human): ≤ 10 µM

NC(=S)c1ccc(OC(=O)CCCCCCCCCCC[P+](c2ccccc2)(c2ccccc2)c2ccccc2)cc1 [AP123-C12]
cell death (A431 cells [1]; [5]): 72.5±2.0%
modes of cell death (early apoptosis, late apoptosis, necrosis) (A431 cells [1]): less effect on early apoptosis, instead increasing late apoptosis and necrosis
cell death (A431 cells [1]; [6]): 12.7±3.0%
cell viability, percentage of untreated control (A431 cells [2]; 5 hours, FIG. 15, 16): 17.0±0.7%

Oc1ccc(-c2cc(=S)ss2)cc1 [ADT-OH, 5-(4-hydroxyphenyl)-3H-1,2-dithiole-3-thione]
cell death (A431 cells [1]; [5]): 25.7±6%
effect on photodynamic cell killing compared to MAL and irradiation only (A431 cells [1]): no statistically significant effect on photodynamic cell killing
modes of cell death (early apoptosis, late apoptosis, necrosis) (A431 cells [1]): no effect on the types of cell death observed compared to treatment with MAL and irradiation
cell viability, percentage of untreated control (A431 cells [2]; 5 hours, FIG. 15, 16): 76.7±1.3%

aurothiomalate [ATM]
cell death (A431 cells [3]; 1 mM MAL + co-treatment 20 μM): 66.7±4.9%
potentiating effect on MAL photodynamic cell killing (A431 cells [3]; summary of Examples 2A, 3A): more robust potentiating effect
tolerance (dark toxicity) (A431 cells [2]; 0.1-500 μM, 24 hours): well tolerated at all concentrations tested
MitoSOX fluorescence, percentage of untreated cells (A431 cells [4]; MAL 1 mM + co-treatment 20 μM): 192.4±5.6%

O=C(CCCCCCCCCCC[P+](c1ccccc1)(c1ccccc1)c1ccccc1)Oc1ccc(-c2cc(=S)ss2)cc1 [AP39-C12]
cell death (A431 cells [1]; [5]): 51.6±3.2%
cell death (A431 cells [1]; [6]): 11.7±1.5%
cell viability, percentage of untreated control (A431 cells [2]; 5 hours, FIG. 15, 16): 13.3±1.8%

From US10149907B2, “Combinations of a photosensitizer with a hydrogen sulfide donor, thioredoxin inhibitor or nitroxide for use in photodynamic therapy” (UNIVERSITY OF EXETER, priority 2014, dated 2018)
